Active and inactive are the calls of the source. How the source made its calls: active means viability on the fitted dose curve at most 10% of control; inactive means the rest.
Test system: NCI-H841 complex tumor spheroid viability
Assay: Anticancer human tumor NCI-H841 cell line growth inhibition;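 on IC50: spheroids exposed to compounds for 7 days before readout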;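 on viability, T/C: spheroids exposed to compounds for 7 days before readout; 100% = DMSO vehicle control wells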
Conditions: for IC50: curve of first compound; for viability, T/C: stronger effect = lower value
Outline: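 Single agents and combinations were tested on spheroids built from tumor cells plus HUVEC and hMSC, at half-log dilutions starting at or near clinical Cmax, else 10 microM; final DMSO 0.25% (v/v).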

## Cc1cc(C)c(CNC(=O)c2cc(-c3ccc(CN4CCOCC4)cc3)cc3c2cnn3C2CCCC2)c(=O)[nH]1 + Cn1nnc2c(C(N)=O)ncn2c1=O
Second compound 1 µM
  IC50: 7.5 µM
Second compound 3.16 µM
  IC50: > 10 µM
Second compound 10 µM
  IC50: > 10 µM
Second compound 31.6 µM
  IC50: 9.72 µM
Second compound 100 µM
  IC50: 7.7 µM
Second compound 1 µM, first compound 0.0316 µM
  viability, T/C: 101%
Second compound 1 µM, first compound 0.1 µM
  viability, T/C: 102%
Second compound 1 µM, first compound 0.316 µM
  viability, T/C: 97.2%
Second compound 1 µM, first compound 1 µM
  viability, T/C: 94.6%
Second compound 1 µM, first compound 3.16 µM
  viability, T/C: 78.9%
Second compound 1 µM, first compound 10 µM
  viability, T/C: 40.1%
Second compound 3.16 µM, first compound 0.0316 µM
  viability, T/C: 101%
Second compound 3.16 µM, first compound 0.1 µM
  viability, T/C: 105%
Second compound 3.16 µM, first compound 0.316 µM
  viability, T/C: 102%
Second compound 3.16 µM, first compound 1 µM
  viability, T/C: 97.4%
Second compound 3.16 µM, first compound 3.16 µM
  viability, T/C: 85.2%
Second compound 3.16 µM, first compound 10 µM
  viability, T/C: 56.3%
Second compound 10 µM, first compound 0.0316 µM
  viability, T/C: 103%
Second compound 10 µM, first compound 0.1 µM
  viability, T/C: 108%
Second compound 10 µM, first compound 0.316 µM
  viability, T/C: 105%
Second compound 10 µM, first compound 1 µM
  viability, T/C: 94.9%
Second compound 10 µM, first compound 3.16 µM
  viability, T/C: 87.2%
Second compound 10 µM, first compound 10 µM
  viability, T/C: 52.5%
Second compound 31.6 µM, first compound 0.0316 µM
  outcome: inactive
Second compound 31.6 µM, first compound 0.1 µM
  viability, T/C: 101%
Second compound 31.6 µM, first compound 0.316 µM
  viability, T/C: 97.6%
Second compound 31.6 µM, first compound 1 µM
  viability, T/C: 103%
Second compound 31.6 µM, first compound 3.16 µM
  viability, T/C: 83%
Second compound 31.6 µM, first compound 10 µM
  viability, T/C: 49.2%
Second compound 100 µM, first compound 0.0316 µM
  viability, T/C: 98.3%
Second compound 100 µM, first compound 0.1 µM
  viability, T/C: 99.2%
Second compound 100 µM, first compound 0.316 µM
  viability, T/C: 95.8%
Second compound 100 µM, first compound 1 µM
  viability, T/C: 97.6%
Second compound 100 µM, first compound 3.16 µM
  viability, T/C: 77.6%
Second compound 100 µM, first compound 10 µM
  viability, T/C: 41.7%

## Cn1ncnc1[C@H]1c2n[nH]c(=O)c3cc(F)cc(c23)N[C@@H]1c1ccc(F)cc1 + Cn1nnc2c(C(N)=O)ncn2c1=O
Second compound 1 µM
  IC50: 0.369 µM
Second compound 3.16 µM
  IC50: 0.0186 µM
Second compound 10 µM
  IC50: < 0.00949 µM
Second compound 31.6 µM
  IC50: < 0.00949 µM
Second compound 100 µM
  IC50: < 0.00949 µM
Second compound 1 µM, first compound 0.00949 µM
  viability, T/C: 89.2%
Second compound 1 µM, first compound 0.03 µM
  viability, T/C: 86.4%
Second compound 1 µM, first compound 0.0949 µM
  viability, T/C: 78.1%
Second compound 1 µM, first compound 0.3 µM
  viability, T/C: 60.3%
Second compound 1 µM, first compound 0.949 µM
  viability, T/C: 4.54%
Second compound 1 µM, first compound 3 µM
  viability, T/C: 2.08%
Second compound 3.16 µM, first compound 0.00949 µM
  viability, T/C: 90.5%
Second compound 3.16 µM, first compound 0.03 µM
  viability, T/C: 9.92%
Second compound 3.16 µM, first compound 0.0949 µM
  viability, T/C: 42.8%
Second compound 3.16 µM, first compound 0.3 µM
  viability, T/C: 42.2%
Second compound 3.16 µM, first compound 0.949 µM
  viability, T/C: 6.61%
Second compound 3.16 µM, first compound 3 µM
  viability, T/C: 5.73%
Second compound 10 µM, first compound 0.00949 µM
  viability, T/C: 25.7%
Second compound 10 µM, first compound 0.03 µM
  viability, T/C: 54.8%
Second compound 10 µM, first compound 0.0949 µM
  viability, T/C: 9.14%
Second compound 10 µM, first compound 0.3 µM
  viability, T/C: 11.2%
Second compound 10 µM, first compound 0.949 µM
  viability, T/C: 6.05%
Second compound 10 µM, first compound 3 µM
  viability, T/C: 2.46%
Second compound 31.6 µM, first compound 0.00949 µM
  viability, T/C: 13.9%
Second compound 31.6 µM, first compound 0.03 µM
  viability, T/C: 6.84%
Second compound 31.6 µM, first compound 0.0949 µM
  viability, T/C: 3.57%
Second compound 31.6 µM, first compound 0.3 µM
  viability, T/C: 2.41%
Second compound 31.6 µM, first compound 0.949 µM
  viability, T/C: 2.88%
Second compound 31.6 µM, first compound 3 µM
  viability, T/C: 3.21%
Second compound 100 µM, first compound 0.00949 µM
  viability, T/C: 3.08%
Second compound 100 µM, first compound 0.03 µM
  viability, T/C: 2.93%
Second compound 100 µM, first compound 0.0949 µM
  viability, T/C: 3.16%
Second compound 100 µM, first compound 0.3 µM
  viability, T/C: 3.31%
Second compound 100 µM, first compound 0.949 µM
  viability, T/C: 8.92%
Second compound 100 µM, first compound 3 µM
  viability, T/C: 3.58%
